Reference: BindingDB's records for PubMed 39288705 (Comenius University Bratislava)

Assays:
[1] = biological target: T1, Replicase polyprotein 1ab (Severe acute respiratory syndrome coronavirus 2, UniProt P0DTD1); assay: Inhibition of SARS-CoV-2 3CL protease extracted from Escherichia coli BL21 (DE3) Rosetta cells using DabcylKNSTLQSGLRKE-Edan as substrate preincubated for 60 mins followed by substrate addition and measured after 20 mins by FRET assay
[2] = biological target: T1, Replicase polyprotein 1ab; assay: Binding affinity to SARS-CoV-2 3CL protease extracted from Escherichia coli BL21 (DE3) Rosetta cells assessed as dissociation constant
[3] = biological target: T1, Replicase polyprotein 1ab; assay: Binding affinity to SARS-CoV-2 3CL protease assessed as dissociation constant by SPR analysis
[4] = biological target: T1, Replicase polyprotein 1ab; assay: Inhibition of SARS-CoV-2 3CL protease by FRET assay

Question: Which IC50 [1] does the source give for CCC(C(=O)Nc1cc(NC2CCOCC2)ccc1C)n1cc(Cl)cc2nc(SCc3ccc(F)cc3)nc1-2 (stereo not given) here?
Answer: 520 nM

Question: What about the Kd [2] of the same compound?
Answer: 1000 nM

Question: CCC(C(=O)Nc1cc(NC2CCOC2)ccc1C)n1cc(Cl)cc2nc(SCc3ccc(F)cc3)nc1-2 (stereo not given) was tested. Which Kd [2] did it give?
Answer: 1110 nM

Question: For CCC(C(=O)Nc1cc(NC2COC2)ccc1C)n1cccc2nc(SCc3ccc(F)cc3)nc1-2 (stereo not given), which Kd [3] is on record?
Answer: 1400 nM

Question: CCC(C(=O)Nc1cc(NC2CCNC2)ccc1C)n1cccc2nc(SCc3ccc(F)cc3)nc1-2 (stereo not given) was tested. Which IC50 [4] did it give?
Answer: 140 nM
